Source: US20100048533A1, “LESTAURTINIB CRYSTALLINE FORM 1, CRYSTALLINE LESTAURIMIB ANHYDRATE AND AMORPHOUS LESTAURIMIB” (ABBOTT LABORATORIES, priority 2005, published 2010)
In brackets after ≈: the same amount, converted by molar mass.

Key:
[1] = Solid-state stability of crystalline forms versus relative humidity; format: physicochemical; conditions: for RH above which the form converts to a higher hydrate: ambient temperature
[2] = Slurry of lestaurtinib forms in 200 proof ethanol for 48 hours, remaining form analyzed by PXRD; conditions: for Form After Mixing With Ethanol For 48 Hours: 200 proof ethanol, PXRD
Procedure: The forms of lestaurtinib remaining were analyzed by PXRD to determine if any crystal form conversion had occurred.

[3] = Thermogravimetric analysis (TGA) moisture / weight loss; format: physicochemical; conditions: for weight loss: TGA
Procedure: TGA data were obtained using a TA Instruments Model 3100 and 5200 Thermal Analysts with a Model 2950 Hi Res TGA module. TGA thermograms were acquired at a heating rate of 5° C. per minute, under nitrogen purge with a flow rate of about 40 mL per minute.

[4] = Dynamic moisture sorption gravimetry (DMSG) (hygroscopicity); format: physicochemical
Procedure: Because moisture-mediated crystallization was not observed during RH levels between 5% and 10%, it was concluded that the solid at 5% RH was crystalline; and because the solid contained less than 0.5% water, it was also determined that it was an anhydrate.
Dynamic moisture sorption gravimetry (DMSG) (hygroscopicity) data were obtained on a VTI Corporation model MB 300 G sorption microbalance using vacuum to control RH. The automated system controlled the RH and temperature to which each sample was exposed, while continuously recording sample weight changes. Sorption and desorption isotherms were performed at 25±0.1° C. with 5±1% RH step intervals from 0-95% RH. Samples of about 15-30 mg were dried under vacuum for up to 3 hours (approximate RH=0-1% RH) before each experiment. The weight loss observed during the drying period was used to estimate how tightly each sample held onto water. After the drying period, sorption isotherms started at 5% RH. A critical weight equilibrium of less than […] weight change over three 5 minutes periods was used to move to the next step. […] Meaning that any water present in the sample was surface water and not lattice water.

[5] = Solubility in 200 proof ethanol by HPLC (saturated solutions, two-day slurry); conditions: slurried two days
Procedure: Solubility of Lestaurtinib Crystalline Form 1 and anhydrous lestaurtinib at 26° C. and 2-8° C. was determined using HPLC. Saturated solutions of the solid-state phase in ethanol (200 poof) were obtained by slurrying a sample in ethanol for two days at 26° C. and at 2-8° C. After slurrying, each solution was filtered through 0.45 μm micron filter and the level of CEP-701 was determined by HPLC.

C[C@]12O[C@H](C[C@]1(O)CO)n1c3ccccc3c3c4c(c5c6ccccc6n2c5c31)CNC4=O.O [Crystalline lestaurtinib monohydrate, crystalline lestaurtinib monohydrate]
RH above which the form converts to a higher hydrate [1]: above 40 % RH | factor by which ability to absorb water is reduced when ground ([1]; ground with mortar and pestle vs unground): about 6

CC#N.CC12OC(CC1(O)CO)n1c3ccccc3c3c4c(c5c6ccccc6n2c5c31)C(=O)NC4.CC12OC(CC1(O)CO)n1c3ccccc3c3c4c(c5c6ccccc6n2c5c31)C(=O)NC4.O (stereo not shown) [hemi: hydrate/acetonitrileate, Crystalline Lestaurtinib Hemihydrate Hemiacetonitrileate]
Form After Mixing With Ethanol For 48 Hours ([2]; 2-8° C.): 1 | Form After Mixing With Ethanol For 48 Hours ([2]; 26° C.): 1

C[C@]12O[C@H](C[C@]1(O)CO)n1c3ccccc3c3c4c(c5c6ccccc6n2c5c31)CNC4=O [Amorphous, Amorphous Lestaurtinib]
weight loss ([3]; up to about 184° C.): 5.56%

C[C@]12O[C@H](C[C@]1(O)CO)n1c3ccccc3c3c4c(c5c6ccccc6n2c5c31)CNC4=O [hydrated, Crystalline Hydrated Lestaurtinib]
Form After Mixing With Ethanol For 48 Hours ([2]; 2-8° C.): 1 | Form After Mixing With Ethanol For 48 Hours ([2]; 26° C.): 1

C[C@]12O[C@H](C[C@]1(O)CO)n1c3ccccc3c3c4c(c5c6ccccc6n2c5c31)CNC4=O [Crystalline lestaurtinib anhydrate, Crystalline Lestaurtinib Anhydrate]
water content of solid-state phase ([4]; DMSG, 25° C., between 0% and 5% RH): less than 0.5% | RH above which the form converts to a higher hydrate [1]: above 5 % RH

CC12OC(CC1(O)CO)n1c3ccccc3c3c4c(c5c6ccccc6n2c5c31)C(=O)NC4 (stereo not shown) [Form I, Lestaurtinib Crystalline Form 1]
Solubility ([5]; 2-8° C.): 2380 µg/mL (≈ 5.42 mM) | Solubility ([5]; 26° C.): 2600 µg/mL (≈ 5.92 mM) | Form After Mixing With Ethanol For 48 Hours ([2]; 2-8° C.): 1 | Form After Mixing With Ethanol For 48 Hours ([2]; 26° C.): 1 | relative stability of crystalline form ([2]; ambient temperature and 2-8° C.): most stable crystalline form of lestaurtinib | hygroscopicity [4]: non-hygroscopic | nominal moisture uptake ([4]; DMSG, 25° C.): about 0.2 % (w/w) | moisture uptake ([4]; DMSG, 25° C., 0-95% RH): up to 0.4% | equilibrium moisture content (EMC) ([4]; DMSG, at moisture uptake up to about 0.4%): about 0.1 mole water per mole drug | equilibrium moisture content (EMC) ([4]; DMSG, at nominal moisture uptake of about 0.2%): about 0.05 mole water per mole drug | weight loss ([3]; up to about 100° C.): 0.04% | moisture ([3]; determined by TGA): less than 0.05% | solid state conversion ([1]; regardless of temperature or relative humidity): not known to undergo solid state conversion
